# Values of other authors in US7265248B1, “Compositions and methods for the treatment of malaria” (Technology Innovations, LLC, priority 2005, dated 2007).
# Like-named read-outs stand apart in the source and are kept apart here.
# Assays:
# [1] = in vivo
# [2] = molecular target: T1, alpha/beta III (Bos taurus, UniProt Q2T9S0); settings: compared with unfractionated tubulin
# T1 construct: microtubules were prepared from bovine cerebra by the method of Fellous et al and tubulin was purified therefrom by phosphocellulose chromatography; from tissue; host or cells: bovine cerebra (brain)
# T1 sequence (Q2T9S0 whole entry): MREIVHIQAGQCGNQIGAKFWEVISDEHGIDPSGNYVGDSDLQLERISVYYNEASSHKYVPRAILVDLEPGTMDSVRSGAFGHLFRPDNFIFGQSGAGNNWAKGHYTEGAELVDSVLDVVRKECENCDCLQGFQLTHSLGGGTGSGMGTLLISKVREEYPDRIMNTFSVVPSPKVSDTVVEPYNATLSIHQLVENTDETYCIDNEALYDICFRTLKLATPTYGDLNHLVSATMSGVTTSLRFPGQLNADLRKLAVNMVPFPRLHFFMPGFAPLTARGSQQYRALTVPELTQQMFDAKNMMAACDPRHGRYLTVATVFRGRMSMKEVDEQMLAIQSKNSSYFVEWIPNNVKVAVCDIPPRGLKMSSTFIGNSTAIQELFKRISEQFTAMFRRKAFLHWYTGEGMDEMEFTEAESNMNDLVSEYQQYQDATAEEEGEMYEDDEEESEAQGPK
# T1 sequence (P81947 whole entry, further chain): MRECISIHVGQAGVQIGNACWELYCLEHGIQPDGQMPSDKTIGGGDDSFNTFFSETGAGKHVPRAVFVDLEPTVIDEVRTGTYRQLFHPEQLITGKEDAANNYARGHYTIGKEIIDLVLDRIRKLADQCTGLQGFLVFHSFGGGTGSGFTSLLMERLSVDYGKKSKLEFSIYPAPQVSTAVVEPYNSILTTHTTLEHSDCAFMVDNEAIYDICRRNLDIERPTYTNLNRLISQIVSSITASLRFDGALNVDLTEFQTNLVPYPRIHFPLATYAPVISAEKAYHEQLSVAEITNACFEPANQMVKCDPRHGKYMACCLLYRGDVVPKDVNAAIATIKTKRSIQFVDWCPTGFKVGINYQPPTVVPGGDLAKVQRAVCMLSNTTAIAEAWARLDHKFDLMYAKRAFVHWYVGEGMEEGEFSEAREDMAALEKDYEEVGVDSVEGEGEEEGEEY
# [3] = molecular target: T2, alpha/beta IV (Bos taurus, UniProt Q3ZBU7); settings: compared with unfractionated tubulin, alpha/beta II, alpha/beta III
# T2 construct: microtubules were prepared from bovine cerebra by the method of Fellous et al and tubulin was purified therefrom by phosphocellulose chromatography; from tissue; host or cells: bovine cerebra (brain)
# T2 sequence (P81947 whole entry): as the sequence (P81947 whole entry, further chain) above
# T2 sequence (Q3ZBU7 whole entry): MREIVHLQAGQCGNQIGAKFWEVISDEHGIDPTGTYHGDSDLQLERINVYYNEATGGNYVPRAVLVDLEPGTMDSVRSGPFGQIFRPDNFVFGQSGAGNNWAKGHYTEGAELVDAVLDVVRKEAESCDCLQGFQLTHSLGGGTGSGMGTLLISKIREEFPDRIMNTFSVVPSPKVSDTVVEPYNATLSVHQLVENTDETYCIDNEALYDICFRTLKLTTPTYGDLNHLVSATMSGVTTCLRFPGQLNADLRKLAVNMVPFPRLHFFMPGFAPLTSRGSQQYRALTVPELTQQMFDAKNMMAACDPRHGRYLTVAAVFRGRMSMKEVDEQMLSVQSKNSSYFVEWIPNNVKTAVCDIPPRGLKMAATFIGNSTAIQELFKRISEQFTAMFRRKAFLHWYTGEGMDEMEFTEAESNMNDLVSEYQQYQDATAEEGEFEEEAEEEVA
# [4] = molecular target: T3, alpha/beta II (Bos taurus, UniProt Q6B856); settings: compared with unfractionated tubulin
# T3 construct: microtubules were prepared from bovine cerebra by the method of Fellous et al and tubulin was purified therefrom by phosphocellulose chromatography; from tissue; host or cells: bovine cerebra (brain)
# T3 sequence (P81947 whole entry): as the sequence (P81947 whole entry, further chain) above
# T3 sequence (Q6B856 whole entry): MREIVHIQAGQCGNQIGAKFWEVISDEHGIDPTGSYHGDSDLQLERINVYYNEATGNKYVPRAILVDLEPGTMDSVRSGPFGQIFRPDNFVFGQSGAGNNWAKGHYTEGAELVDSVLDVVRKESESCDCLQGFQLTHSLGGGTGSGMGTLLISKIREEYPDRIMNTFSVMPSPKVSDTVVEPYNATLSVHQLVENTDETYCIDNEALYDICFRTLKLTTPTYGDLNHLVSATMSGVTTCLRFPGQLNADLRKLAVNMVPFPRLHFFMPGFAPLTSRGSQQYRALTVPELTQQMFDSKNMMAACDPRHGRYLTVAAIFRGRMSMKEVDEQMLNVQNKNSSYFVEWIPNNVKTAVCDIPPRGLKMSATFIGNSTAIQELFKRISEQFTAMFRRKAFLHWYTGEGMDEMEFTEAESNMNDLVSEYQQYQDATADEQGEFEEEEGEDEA
# [5] = not given; remark: listed apart in the source
# [6] = molecular target: alpha/beta III dimer (Bos taurus, UniProt Q2T9S0); settings: compared with alpha/beta II and alpha/beta IV dimers
# alpha/beta III dimer, sequence (Q2T9S0 whole entry): as the sequence (Q2T9S0 whole entry) above
# alpha/beta III dimer, sequence (P81947 whole entry, further chain): as the sequence (P81947 whole entry, further chain) above
structure (smiles),measurement,setting,value
COc1cc(NC(C)CCCN)c2ncccc2c1 (stereo not shown) [primaquine],side effects,[1],blood dyscrasias
CCc1nc(N)nc(N)c1-c1ccc(Cl)cc1 [pyrimethamine],half life,in vivo,80 to 95 h
same,side effects,[1],blood dyscrasias
COc1cc(OC)c(Cl)c(-n2c(-c3ccccc3)cc(=O)c(C)c2-c2ccc(F)cc2)c1 [IKP-104],apparent dissociation constant for the high-affinity site (Kd1),[2],lower than that of unfractionated tubulin
same,apparent dissociation constant for the high-affinity site (Kd1),[3],"greater than those of unfractionated tubulin, alpha/beta II, or alpha/beta III"
same,apparent dissociation constant for the high-affinity site (Kd1),[4],lower than that of unfractionated tubulin
CCN(CC)CCCC(C)Nc1ccnc2cc(Cl)ccc12 (stereo not shown) [chloroquine],volume of distribution,in vivo,over 100 l/kg
same,half life,in words,days to weeks
same,side effects,[1],cardiovascular and CNS effects
OC(c1cc(C(F)(F)F)nc2c(C(F)(F)F)cccc12)C1CCCCN1 (stereo not shown) [mefloquine],volume of distribution,in words,several times the volume of body water
same,protein binding,[5],~98%
O=C1C(O)=C([C@H]2CC[C@H](c3ccc(Cl)cc3)CC2)C(=O)c2ccccc21 [atovaquone],half life,in vivo,36 to 72 h
same,pharmacokinetic profile,in words,double peaking
same,side effects,[1],"rash, vomiting, diarrhea, fever and headache"
same,protein binding,[5],99%
CC(=O)O[C@H]1C(=O)[C@@]2(C)[C@H]([C@H](OC(=O)c3ccccc3)[C@]3(O)C[C@H](OC(=O)[C@H](O)[C@@H](NC(=O)c4ccccc4)c4ccccc4)C(C)=C1C3(C)C)[C@]1(OC(C)=O)CO[C@@H]1C[C@@H]2O [paclitaxel],interaction with ligand,[6],much less strongly
